Measurements: ChEMBL document CHEMBL4823249, “Discovery of a Pyrimidinedione Derivative as a Potent and Orally Bioavailable Axl Inhibitor” (J Med Chem, 2021)
Activity calls are given as the source filed them. The calls are words filed in the database; no cut-off is given here.

What was measured:
[1] = molecular target: Tyrosine-protein kinase receptor TYRO3 (Homo sapiens, UniProt Q06418); experiment: Inhibition of recombinant human RSE (451 to end residues) using KVEKIGEGTYGVVYK as substrate incubated for 40 mins in presence of [gamma33P]ATP by scintillation counting based radiometry assay
[2] = molecular target: Tyrosine-protein kinase SYK (Homo sapiens, UniProt P43405); experiment: Inhibition of recombinant human full length SYK using poly(Glu, Tyr) 4:1 as substrate incubated for 40 mins in presence of [gamma33P]ATP by scintillation counting based radiometry assay
[3] = molecular target: Tyrosine-protein kinase BTK (Homo sapiens, UniProt Q06187); experiment: Inhibition of full length recombinant human BTK using KVEKIGEGTYGVVYK as substrate incubated for 40 mins in presence of [gamma-33P]-ATP by scintillation counting based radiometry assay
Chain of Tyrosine-protein kinase BTK (Q06187 whole entry): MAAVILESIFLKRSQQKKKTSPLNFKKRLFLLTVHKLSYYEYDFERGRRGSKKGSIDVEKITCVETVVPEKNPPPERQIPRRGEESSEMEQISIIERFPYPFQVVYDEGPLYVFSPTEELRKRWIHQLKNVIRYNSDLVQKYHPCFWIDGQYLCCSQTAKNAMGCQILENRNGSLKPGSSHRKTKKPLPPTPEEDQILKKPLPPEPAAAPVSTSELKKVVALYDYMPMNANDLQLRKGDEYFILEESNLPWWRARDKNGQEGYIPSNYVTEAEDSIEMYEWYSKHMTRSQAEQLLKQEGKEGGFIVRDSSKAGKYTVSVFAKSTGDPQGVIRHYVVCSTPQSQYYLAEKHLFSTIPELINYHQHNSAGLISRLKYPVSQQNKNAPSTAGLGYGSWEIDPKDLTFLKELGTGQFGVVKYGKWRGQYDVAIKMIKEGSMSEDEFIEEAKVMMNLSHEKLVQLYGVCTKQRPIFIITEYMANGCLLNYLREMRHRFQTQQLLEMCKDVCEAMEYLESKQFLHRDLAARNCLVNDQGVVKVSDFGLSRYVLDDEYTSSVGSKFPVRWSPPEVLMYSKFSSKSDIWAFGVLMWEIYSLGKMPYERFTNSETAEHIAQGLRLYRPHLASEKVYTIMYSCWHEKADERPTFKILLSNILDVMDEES

[4] = molecular target: T1, Hepatocyte growth factor receptor (Homo sapiens, UniProt P08581); experiment: Inhibition of MET signaling in human EBC1 cells assessed as reduction in phosphorylation of MET after 2 hrs by Western blotting analysis; assay type: cell-based; conditions: EBC-1, dose 10-100 nM
T1 sequence (P08581 whole entry): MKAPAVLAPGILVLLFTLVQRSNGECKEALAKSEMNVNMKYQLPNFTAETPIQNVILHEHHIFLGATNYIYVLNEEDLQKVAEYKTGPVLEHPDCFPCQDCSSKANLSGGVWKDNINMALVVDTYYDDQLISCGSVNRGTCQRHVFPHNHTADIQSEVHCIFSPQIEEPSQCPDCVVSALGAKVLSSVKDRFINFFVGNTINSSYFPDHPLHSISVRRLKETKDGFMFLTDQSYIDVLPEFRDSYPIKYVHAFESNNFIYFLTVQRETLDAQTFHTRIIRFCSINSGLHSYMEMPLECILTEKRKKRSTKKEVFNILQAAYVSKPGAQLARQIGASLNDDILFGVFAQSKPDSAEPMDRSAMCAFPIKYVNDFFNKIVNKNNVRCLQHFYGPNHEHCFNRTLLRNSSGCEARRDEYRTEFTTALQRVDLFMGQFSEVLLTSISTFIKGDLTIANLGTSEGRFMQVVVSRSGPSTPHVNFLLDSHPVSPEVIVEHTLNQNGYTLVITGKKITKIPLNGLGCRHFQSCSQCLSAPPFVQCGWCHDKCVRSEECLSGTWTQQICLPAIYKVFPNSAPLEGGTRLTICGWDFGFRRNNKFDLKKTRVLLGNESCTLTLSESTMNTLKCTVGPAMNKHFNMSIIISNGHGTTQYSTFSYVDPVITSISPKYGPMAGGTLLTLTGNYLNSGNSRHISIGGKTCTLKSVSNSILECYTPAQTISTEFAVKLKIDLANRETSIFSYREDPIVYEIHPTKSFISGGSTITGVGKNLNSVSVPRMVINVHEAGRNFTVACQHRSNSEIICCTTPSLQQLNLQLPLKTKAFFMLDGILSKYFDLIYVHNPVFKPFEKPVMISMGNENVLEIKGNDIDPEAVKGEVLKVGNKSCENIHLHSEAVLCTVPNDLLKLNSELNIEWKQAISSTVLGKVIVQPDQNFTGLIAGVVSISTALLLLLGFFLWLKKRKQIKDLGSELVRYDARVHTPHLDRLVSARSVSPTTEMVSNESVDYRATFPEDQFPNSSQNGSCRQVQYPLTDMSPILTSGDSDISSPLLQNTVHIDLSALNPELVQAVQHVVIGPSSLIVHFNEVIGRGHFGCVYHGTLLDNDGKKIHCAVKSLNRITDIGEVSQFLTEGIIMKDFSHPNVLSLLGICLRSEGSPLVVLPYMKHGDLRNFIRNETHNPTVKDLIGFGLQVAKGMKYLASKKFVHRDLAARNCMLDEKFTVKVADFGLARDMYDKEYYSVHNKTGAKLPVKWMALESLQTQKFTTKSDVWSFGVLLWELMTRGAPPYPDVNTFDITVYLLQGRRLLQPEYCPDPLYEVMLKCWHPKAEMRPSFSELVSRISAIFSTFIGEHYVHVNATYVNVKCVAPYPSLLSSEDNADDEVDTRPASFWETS

[5] = AUC(0 to infinity) in ICR mouse at 3 mg/kg, po measured upto 24 hrs by LC-MS analysis; assay type: ADME, organism-based; parameters: route oral, dose 3 mg/kg, time <=24; conditions: in vivo
Focal adhesion kinase 1 = Focal adhesion kinase 1 (Homo sapiens, UniProt Q05397); experiment: Inhibition of human recombinant FAK1 (411 to 686 residues) using EEEEYEEEEEEYY as substrate incubated for 40 mins in presence of [gamma-33ATP] by radiometric scintillation counting analysis
Chain of Focal adhesion kinase 1 (Q05397 whole entry, the tested form may be a part): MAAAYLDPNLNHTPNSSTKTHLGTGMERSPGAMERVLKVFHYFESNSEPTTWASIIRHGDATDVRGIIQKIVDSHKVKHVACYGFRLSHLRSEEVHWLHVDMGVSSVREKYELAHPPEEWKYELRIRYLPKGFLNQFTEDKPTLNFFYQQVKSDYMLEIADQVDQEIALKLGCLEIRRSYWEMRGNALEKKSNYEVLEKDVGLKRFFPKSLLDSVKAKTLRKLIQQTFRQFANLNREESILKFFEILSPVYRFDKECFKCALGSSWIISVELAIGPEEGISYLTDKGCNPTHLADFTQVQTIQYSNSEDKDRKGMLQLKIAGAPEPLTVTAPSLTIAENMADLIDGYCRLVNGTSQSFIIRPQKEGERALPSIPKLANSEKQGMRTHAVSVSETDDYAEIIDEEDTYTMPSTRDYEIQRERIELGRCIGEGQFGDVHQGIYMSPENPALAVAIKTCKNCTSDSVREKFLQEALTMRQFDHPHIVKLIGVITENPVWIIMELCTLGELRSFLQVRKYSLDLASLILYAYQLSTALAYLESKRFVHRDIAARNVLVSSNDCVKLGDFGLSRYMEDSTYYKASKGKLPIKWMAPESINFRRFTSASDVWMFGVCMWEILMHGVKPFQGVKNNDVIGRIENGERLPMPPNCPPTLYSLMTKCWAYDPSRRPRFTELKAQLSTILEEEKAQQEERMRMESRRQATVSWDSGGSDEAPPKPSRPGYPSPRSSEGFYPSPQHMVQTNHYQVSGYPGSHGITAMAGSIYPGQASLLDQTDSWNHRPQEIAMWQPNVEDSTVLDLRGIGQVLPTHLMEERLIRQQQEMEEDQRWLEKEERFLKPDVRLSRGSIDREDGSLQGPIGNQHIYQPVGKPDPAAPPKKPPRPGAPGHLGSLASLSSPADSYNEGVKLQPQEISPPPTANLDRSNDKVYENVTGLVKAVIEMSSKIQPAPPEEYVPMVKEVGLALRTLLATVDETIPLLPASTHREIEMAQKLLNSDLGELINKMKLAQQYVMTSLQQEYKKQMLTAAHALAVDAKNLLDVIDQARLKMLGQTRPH

[6] = molecular target: Mitogen-activated protein kinase kinase kinase kinase 2 (Homo sapiens, UniProt Q12851); experiment: Inhibition of recombinant human GCK (1 to 473 residues) using myelin basic protein as substrate incubated for 40 mins in presence of [gamma-33ATP] by scintillation counting based radiometry assay
Chain of Mitogen-activated protein kinase kinase kinase kinase 2 (Q12851 whole entry, the tested form may be a part): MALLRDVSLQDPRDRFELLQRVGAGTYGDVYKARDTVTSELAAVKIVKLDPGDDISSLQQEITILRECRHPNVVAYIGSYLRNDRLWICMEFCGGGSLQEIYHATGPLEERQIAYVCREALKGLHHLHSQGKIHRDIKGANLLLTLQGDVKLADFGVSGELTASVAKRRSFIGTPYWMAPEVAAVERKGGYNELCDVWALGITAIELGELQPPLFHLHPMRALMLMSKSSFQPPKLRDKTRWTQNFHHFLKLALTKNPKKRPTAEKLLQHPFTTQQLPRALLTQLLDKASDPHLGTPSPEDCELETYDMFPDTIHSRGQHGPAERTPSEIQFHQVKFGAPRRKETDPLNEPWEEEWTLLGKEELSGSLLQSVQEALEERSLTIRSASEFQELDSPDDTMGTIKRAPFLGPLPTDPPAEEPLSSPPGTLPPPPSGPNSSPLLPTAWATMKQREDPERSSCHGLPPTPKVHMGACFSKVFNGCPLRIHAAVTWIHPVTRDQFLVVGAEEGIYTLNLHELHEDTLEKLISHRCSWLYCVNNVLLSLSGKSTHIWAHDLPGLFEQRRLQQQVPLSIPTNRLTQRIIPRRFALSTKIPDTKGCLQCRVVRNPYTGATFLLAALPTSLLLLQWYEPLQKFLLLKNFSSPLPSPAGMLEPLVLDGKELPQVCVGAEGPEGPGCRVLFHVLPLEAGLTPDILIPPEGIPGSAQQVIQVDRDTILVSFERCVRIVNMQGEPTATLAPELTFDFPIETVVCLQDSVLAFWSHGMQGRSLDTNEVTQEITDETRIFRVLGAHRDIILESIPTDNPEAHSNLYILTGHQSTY

[7] = Cmax in ICR mouse at 3 mg/kg, po measured upto 24 hrs by LC-MS analysis; assay type: ADME, organism-based; parameters: route oral, dose 3 mg/kg, time <=24; conditions: in vivo
[8] = molecular target: T2, Tyrosine-protein kinase receptor UFO (Mus musculus) (UniProt Q00993); experiment: Inhibition of AXL in mouse BaF3/TEL-AXL cells assessed as reduction in Gas6-induced phosphorylation of AXL at 0.5 to 50 nM preincubated for 2 hrs followed by Gas6 stimulation for 15 mins by Western blotting analysis; assay type: cell-based; conditions: dose 0.5-50 nM
T2 sequence (whole entry): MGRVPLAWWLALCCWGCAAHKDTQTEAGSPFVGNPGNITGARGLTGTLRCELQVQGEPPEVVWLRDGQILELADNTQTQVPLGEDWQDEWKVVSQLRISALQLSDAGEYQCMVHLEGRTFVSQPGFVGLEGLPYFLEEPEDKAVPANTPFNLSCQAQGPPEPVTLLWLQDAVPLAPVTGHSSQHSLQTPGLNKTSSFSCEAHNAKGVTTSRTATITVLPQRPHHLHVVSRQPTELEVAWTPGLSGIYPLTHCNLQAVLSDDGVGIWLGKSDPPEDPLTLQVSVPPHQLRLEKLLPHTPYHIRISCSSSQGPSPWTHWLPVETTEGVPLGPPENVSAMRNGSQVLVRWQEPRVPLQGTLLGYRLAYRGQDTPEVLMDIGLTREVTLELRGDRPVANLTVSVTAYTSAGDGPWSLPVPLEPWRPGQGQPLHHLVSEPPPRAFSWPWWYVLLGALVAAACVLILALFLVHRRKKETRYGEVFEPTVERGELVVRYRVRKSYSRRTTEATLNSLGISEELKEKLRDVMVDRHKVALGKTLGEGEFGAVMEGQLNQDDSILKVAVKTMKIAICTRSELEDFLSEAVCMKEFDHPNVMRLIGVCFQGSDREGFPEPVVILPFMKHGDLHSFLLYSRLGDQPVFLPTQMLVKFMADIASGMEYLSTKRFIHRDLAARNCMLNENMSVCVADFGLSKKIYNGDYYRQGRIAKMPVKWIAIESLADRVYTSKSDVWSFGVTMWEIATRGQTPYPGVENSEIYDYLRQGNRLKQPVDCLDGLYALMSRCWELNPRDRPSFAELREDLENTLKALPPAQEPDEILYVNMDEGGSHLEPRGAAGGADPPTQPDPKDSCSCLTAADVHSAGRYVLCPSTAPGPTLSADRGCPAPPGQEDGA

BT-549 = experiment: Antiproliferative activity against human BT-549 cells incubated for 72 hrs by SRB or CCK8 assay; assay type: functional, cell-based; conditions: BT-549, 72 h
HT-29 = experiment: Antiproliferative activity against human HT-29 cells incubated for 72 hrs by SRB or CCK8 assay; assay type: functional, cell-based; conditions: HT-29, 72 h
[9] = molecular target: Serine/threonine-protein kinase A-Raf (Homo sapiens, UniProt P10398); experiment: Inhibition of recombinant human A-Raf (273 to end residues) using myelin basic protein as substrate incubated for 40 mins in presence of [gamma-33ATP] by scintillation counting based radiometry assay
Chain of Serine/threonine-protein kinase A-Raf (P10398 whole entry, the tested form may be a part): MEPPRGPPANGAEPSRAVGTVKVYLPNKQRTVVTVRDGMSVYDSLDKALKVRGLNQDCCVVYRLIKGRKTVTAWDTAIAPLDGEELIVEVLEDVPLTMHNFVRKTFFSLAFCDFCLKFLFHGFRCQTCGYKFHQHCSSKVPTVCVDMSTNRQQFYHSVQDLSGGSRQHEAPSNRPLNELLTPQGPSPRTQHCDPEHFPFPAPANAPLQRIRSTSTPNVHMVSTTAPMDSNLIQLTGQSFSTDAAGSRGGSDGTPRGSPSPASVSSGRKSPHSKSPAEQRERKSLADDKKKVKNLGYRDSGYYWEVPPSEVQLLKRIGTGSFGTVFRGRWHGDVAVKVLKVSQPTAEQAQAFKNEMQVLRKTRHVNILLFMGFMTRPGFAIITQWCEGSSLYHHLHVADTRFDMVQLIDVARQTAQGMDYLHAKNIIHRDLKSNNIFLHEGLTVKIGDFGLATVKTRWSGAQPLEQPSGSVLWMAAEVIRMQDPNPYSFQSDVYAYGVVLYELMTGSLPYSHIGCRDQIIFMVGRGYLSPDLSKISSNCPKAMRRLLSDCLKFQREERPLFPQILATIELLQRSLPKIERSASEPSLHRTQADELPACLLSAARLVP

[10] = molecular target: Fibroblast growth factor receptor 1 (Homo sapiens, UniProt P11362); experiment: Inhibition of recombinant human FGFR1 (456 to 765 residues) using KKKSPGEYVNIEF as substrate incubated for 40 mins in presence of [gamma-33ATP] by radiometric scintillation counting analysis
U-87 MG = experiment: Antitumor activity against human U-87MG cells xenografted in BALB/c nude mouse assessed as tumor growth inhibition at 25 mg/kg, po administered once daily for 14 days by caliper method; assay type: functional, U-87MG ATCC; conditions: 336 h, time 14 day, read-out: TGI
[11] = AUC(0 to t) in ICR mouse at 3 mg/kg, po measured upto 24 hrs by LC-MS analysis; assay type: ADME, organism-based; parameters: route oral, dose 3 mg/kg, time <=24; conditions: in vivo
[12] = molecular target: Calcium/calmodulin-dependent protein kinase type 1 (Homo sapiens, UniProt Q14012); experiment: Inhibition of recombinant human CaMK1 (2 to end residues) using […] as substrate incubated for 40 mins in presence of [gamma-33ATP] by scintillation counting based radiometry assay
Chain of Calcium/calmodulin-dependent protein kinase type 1 (Q14012 whole entry): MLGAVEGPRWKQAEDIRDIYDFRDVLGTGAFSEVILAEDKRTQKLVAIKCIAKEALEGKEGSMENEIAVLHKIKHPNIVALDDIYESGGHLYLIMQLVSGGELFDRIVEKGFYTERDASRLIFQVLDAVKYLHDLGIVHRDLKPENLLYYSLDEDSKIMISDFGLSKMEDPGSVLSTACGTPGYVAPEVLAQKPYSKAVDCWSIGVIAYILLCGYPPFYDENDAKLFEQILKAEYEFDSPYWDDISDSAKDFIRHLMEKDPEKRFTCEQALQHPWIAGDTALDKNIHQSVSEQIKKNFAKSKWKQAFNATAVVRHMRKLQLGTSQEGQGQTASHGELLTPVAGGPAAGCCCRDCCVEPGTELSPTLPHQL

[13] = molecular target: T1, Hepatocyte growth factor receptor; experiment: Inhibition of recombinant human MET (974 to end residues) using KKKGQEEEYVFIE as substrate incubated for 40 mins in presence of [gamma-33ATP by scintillation counting based radiometry assay
[14] = Tmax in Sprague-Dawley rat at 3 mg/kg, po measured upto 24 hrs by LC-MS analysis; assay type: ADME, organism-based; conditions: in vivo
[15] = Half life in Sprague-Dawley rat at 3 mg/kg, po measured upto 24 hrs by LC-MS analysis; assay type: ADME, organism-based; conditions: in vivo
[16] = molecular target: T1, Hepatocyte growth factor receptor; experiment: Inhibition of MET signaling in human MKN45 cells assessed as reduction in phosphorylation of MET after 2 hrs by Western blotting analysis; assay type: cell-based; conditions: MKN-45, dose 10-100 nM
Ephrin type-A receptor 2 = Ephrin type-A receptor 2 (Homo sapiens, UniProt P29317); experiment: Inhibition of recombinant human EphA2 (596 to 900 residues) using poly(Glu, Tyr) 4:1 as substrate incubated for 40 mins in presence of [gamma-33ATP] by scintillation counting based radiometry assay
[17] = molecular target: Platelet-derived growth factor receptor beta (Homo sapiens, UniProt P09619); experiment: Inhibition of human PDGFRbeta (557 to end residues) using poly(Glu, Tyr) 4:1 as substrate measured after 40 mins in presence of [gamma33P]ATP by scintillation counting based radiometry assay

IC50 [1]: 0.001 µM
IC50 [2]: > 0.1 µM
IC50 [3]: > 1 µM
inhibition [4]: Dose-Dependent Effect
AUC(0-inf) [5]: 25100 ng·h/mL
IC50 (Focal adhesion kinase 1): > 1 µM
IC50 [6]: > 1 µM
Cmax [7]: 2990 ng/mL
inhibition [8]: Active
IC50 (BT-549): > 10 µM
IC50 (HT-29): > 10 µM
IC50 [9]: > 1 µM
IC50 [10]: > 1 µM
AUC(0-t) at 24 h [11]: 24000 ng·h/mL
IC50 [12]: > 1 µM
IC50 [13]: 0.0008 µM
Tmax [14]: 1.17 h
half-life [15]: 13.8 h
inhibition [16]: Dose-Dependent Effect
IC50 (Ephrin type-A receptor 2): > 0.1 µM
IC50 [17]: > 1 µM
SMILES: CC(C)n1cc(C(=O)Nc2ccc(Oc3ccnc(NC(=O)C4CC4)c3)c(F)c2)c(=O)n(-c2ccc(F)cc2)c1=O
inhibition in vivo at 25 mg/kg (U-87 MG): 89.8%
